According to ChEMBL document CHEMBL1144791, “Facile synthesis of substituted trans-2-arylcyclopropylamine inhibitors of the human histone demethylase LSD1 and monoamine oxidases A and B” (Bioorg Med Chem Lett, 2008):

Assays:
[1] = biological target: MAO-B (amine oxidase [flavin-containing] B), Homo sapiens (UniProt P27338); experiment: Ratio of Kinact to KI of human MAOB
[2] = biological target: MAO-A (amine oxidase [flavin-containing] A), Homo sapiens (UniProt P21397); experiment: Ratio of Kinact to KI of human MAOA
[3] = Inhibition of human MAOA; settings: read-out: Kinact
[4] = Inhibition of human MAOB; settings: read-out: Kinact

MAO-B (amine oxidase [flavin-containing] B), Homo sapiens, sequence (P27338 whole entry, looked up): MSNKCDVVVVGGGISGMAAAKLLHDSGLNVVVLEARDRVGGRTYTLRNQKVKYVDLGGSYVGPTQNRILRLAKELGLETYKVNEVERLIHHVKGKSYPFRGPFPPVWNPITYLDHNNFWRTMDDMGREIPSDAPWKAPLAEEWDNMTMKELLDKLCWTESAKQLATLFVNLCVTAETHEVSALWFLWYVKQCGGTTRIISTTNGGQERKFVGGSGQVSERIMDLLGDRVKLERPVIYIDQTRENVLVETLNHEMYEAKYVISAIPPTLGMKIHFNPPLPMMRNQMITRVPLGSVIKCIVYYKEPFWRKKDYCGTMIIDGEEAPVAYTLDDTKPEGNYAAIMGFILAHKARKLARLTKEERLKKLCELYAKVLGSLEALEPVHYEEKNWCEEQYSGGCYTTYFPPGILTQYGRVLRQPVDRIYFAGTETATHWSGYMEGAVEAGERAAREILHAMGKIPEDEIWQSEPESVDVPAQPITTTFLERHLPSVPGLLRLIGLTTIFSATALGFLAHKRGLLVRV
MAO-A (amine oxidase [flavin-containing] A), Homo sapiens, sequence (P21397 whole entry, looked up): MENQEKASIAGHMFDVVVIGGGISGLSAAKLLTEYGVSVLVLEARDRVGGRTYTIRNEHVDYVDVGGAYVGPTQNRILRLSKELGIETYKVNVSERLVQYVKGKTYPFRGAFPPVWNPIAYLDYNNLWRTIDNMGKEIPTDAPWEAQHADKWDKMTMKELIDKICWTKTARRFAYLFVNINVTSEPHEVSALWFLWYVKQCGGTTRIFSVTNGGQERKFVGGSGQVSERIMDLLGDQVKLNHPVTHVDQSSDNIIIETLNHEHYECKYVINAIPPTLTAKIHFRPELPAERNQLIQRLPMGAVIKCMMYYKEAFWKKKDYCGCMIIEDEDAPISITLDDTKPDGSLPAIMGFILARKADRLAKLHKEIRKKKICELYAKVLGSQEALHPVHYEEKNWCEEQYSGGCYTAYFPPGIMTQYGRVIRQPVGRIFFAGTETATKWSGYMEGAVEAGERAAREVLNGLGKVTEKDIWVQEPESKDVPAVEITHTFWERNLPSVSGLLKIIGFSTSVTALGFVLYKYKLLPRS

Row | kinact/KI [1] [M⁻¹ s⁻¹] | kinact/KI [2] [M⁻¹ s⁻¹] | KI (inactivation) [3] [µM] | SMILES | KI (inactivation) [4] [µM]
1 | < 1.5 | < 14 | – | NC1CC1(c1ccccc1)c1ccccc1 (stereo not drawn) | –
2 | 22.3 | < 18 | 1550 | N[C@@H]1C[C@H]1c1ccsc1 (relative stereo) | –
3 | 4840 | 362 | 9.8 | N[C@@H]1C[C@H]1c1cccc2ccccc12 (relative stereo) | 38.7

Row | SMILES | kinact/KI [1] [M⁻¹ s⁻¹] | kinact/KI [2] [M⁻¹ s⁻¹] | KI (inactivation) [3] [µM] | KI (inactivation) [4] [µM]
4 | N[C@@H]1C[C@H]1c1ccc(C(F)(F)F)cc1 (relative stereo) | 7510 | 2860 | 7.7 | 29.8
